Target: transient receptor potential ankyrin 1 (TRPA1) (Rattus norvegicus, UniProt Q6RI86)
Test: whole-cell patch clamp in primary rat beta cells (MG in pipette); also currents in TRPA1-transfected HEK293T cells and siRNA-sensitive Ca2+ influx
Assay type: cell-based

Sequence of transient receptor potential ankyrin 1 (TRPA1) (Q6RI86 whole entry): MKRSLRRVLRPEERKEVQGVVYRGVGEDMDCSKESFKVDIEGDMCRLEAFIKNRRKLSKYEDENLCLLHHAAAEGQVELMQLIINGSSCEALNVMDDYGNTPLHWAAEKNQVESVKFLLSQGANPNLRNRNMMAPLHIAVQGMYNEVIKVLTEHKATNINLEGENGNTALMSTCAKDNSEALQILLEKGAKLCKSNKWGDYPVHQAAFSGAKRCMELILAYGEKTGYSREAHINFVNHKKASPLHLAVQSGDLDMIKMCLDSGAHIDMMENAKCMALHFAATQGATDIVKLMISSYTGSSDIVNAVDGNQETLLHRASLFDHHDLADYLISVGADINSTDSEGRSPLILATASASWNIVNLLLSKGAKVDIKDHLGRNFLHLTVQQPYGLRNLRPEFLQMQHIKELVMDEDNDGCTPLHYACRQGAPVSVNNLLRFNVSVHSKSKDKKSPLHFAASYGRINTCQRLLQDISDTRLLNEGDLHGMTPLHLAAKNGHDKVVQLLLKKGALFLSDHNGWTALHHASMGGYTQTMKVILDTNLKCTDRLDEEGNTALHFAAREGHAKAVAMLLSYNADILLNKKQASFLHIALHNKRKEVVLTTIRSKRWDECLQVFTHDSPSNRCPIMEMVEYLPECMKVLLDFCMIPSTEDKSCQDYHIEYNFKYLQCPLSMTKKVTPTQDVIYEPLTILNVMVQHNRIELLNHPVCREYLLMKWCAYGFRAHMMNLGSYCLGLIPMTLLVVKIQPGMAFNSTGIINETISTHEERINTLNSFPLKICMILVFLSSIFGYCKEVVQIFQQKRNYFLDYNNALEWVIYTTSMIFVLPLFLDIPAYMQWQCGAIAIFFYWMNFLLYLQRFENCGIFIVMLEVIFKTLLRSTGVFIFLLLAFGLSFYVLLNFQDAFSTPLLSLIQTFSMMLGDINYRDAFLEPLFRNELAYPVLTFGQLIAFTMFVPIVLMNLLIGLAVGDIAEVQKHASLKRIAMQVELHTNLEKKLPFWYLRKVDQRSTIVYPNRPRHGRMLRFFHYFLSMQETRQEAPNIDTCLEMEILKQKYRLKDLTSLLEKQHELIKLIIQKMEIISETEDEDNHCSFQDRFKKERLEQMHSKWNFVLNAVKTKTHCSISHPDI

EC50: 590 nM
SMILES: CC(=O)C=O [MG, methylglyoxal]
